In patent US20040185109A1, “Method for incorporating cationic molecules into a substrate for increasing dispersibility of cationic molecules” (priority 2002, published 2004):

Assay: Determination of useful cationic compounds: dye mixed with organoclay, clean clay, quat or alone in water, centrifuged, examined visually
Format: physicochemical
Settings: for Ionic character (cationic or anionic) concluded from the visual results: conclusion from Test Tubes 1-4
Excerpt: At the outset of the method of the present invention, it must first be determined if a particular compound or molecule will be able to undergo the method of enhancing its dispersibility and thereby its cationic properties as disclosed herein. Thus, a determination must be made (for example, if the ionic character of a certain compound is unknown) whether or not the ion or molecule comprises an cationic portion that will ion exchange onto the surface of a substrate such as a clay or an organoclay. Thus, the molecule or ion can be tested in order to determine whether it has a cationic character (and thus can undergo the present method) or an anionic character or a neutral character. In testing certain molecules or ions, the procedure described below was employed.
Using Jarocol Straw Yellow dye as a representative example, four 1 mg samples of the dye were weighed and placed in 4 test tubes.
Subsequently, 10 mL of water were added to each of the four test tubes, and all of the samples were mixed well for 30 seconds. The samples from each of the test tubes were then centrifuged for 15 minutes in a laboratory scale centrifuge.
Next, the resulting centrifuged samples were examined and analyzed (by being compared to the control sample) to determine whether the Jarocol Straw Yellow dye reacted with the organoclay, the clean clay, or the quat, so that it could then be decided if Jarocol Straw Yellow dye has the requisite cationic character to ion exchange onto the surface of a clay and thereby have increased dispersibility in various application systems.
The analysis herein was performed visually, since the six samples tested were dyes. However, non-dye samples may be analyzed through infrared spectroscopy, differential scanning calorimetry (DSC), gas chromatography, UV spectroscopy, thermogravimetric analysis, or the like. For example, for a non-dye sample, the clay may be separated from the water, both parts may be taken to dryness, and the IR spectrum of each may be recorded.
Just as Jarocol Straw Yellow dye was tested using the four test tubes, the other five dye samples were similarly tested.

Row | Structure (SMILES) | Ionic character (cationic or anionic) concluded from the visual results | Test Tube 4 (Control, sample only) visual result (1 mg dye only, 10 mL water, mixed 30 seconds, centrifuged 15 minutes) | Test Tube 3 (10 mg Quat) visual result (1 mg dye + 10 mg quat, 10 mL water, mixed 30 seconds, centrifuged 15 minutes)
1 | O=C([O-])c1ccccc1-c1c2cc(Br)c(=O)c(Br)c-2oc2c(Br)c([O-])c(Br)cc12.[Na+].[Na+] [D&C Red No. 22 dye] | exhibit anionic character to some extent |  | 
2 | CN(C)c1ccc2nc3ccc(=[N+](C)C)cc-3sc2c1 [Methylene Blue, laboratory reagent dye, methylene blue] | have the requisite cationic character |  | 

The next lines start with results.

Row | Ionic character (cationic or anionic) concluded from the visual results | Test Tube 4 (Control, sample only) visual result (1 mg dye only, 10 mL water, mixed 30 seconds, centrifuged 15 minutes) | Structure (SMILES) | Test Tube 3 (10 mg Quat) visual result (1 mg dye + 10 mg quat, 10 mL water, mixed 30 seconds, centrifuged 15 minutes)
3 | exhibit anionic character to some extent |  | CCN(Cc1cccc(S(=O)(=O)[O-])c1)c1ccc(C(=C2C=CC(=[N+](CC)Cc3cccc(S(=O)(=O)[O-])c3)C=C2)c2ccccc2S(=O)(=O)[O-])cc1.[Na+].[Na+] [FD&C Blue No. 1 dye] | 
4 | exhibit anionic character to some extent |  | O=C([O-])C1=NN(c2ccc(S(=O)(=O)[O-])cc2)C(=O)C1N=Nc1ccc(S(=O)(=O)[O-])cc1.[Na+].[Na+].[Na+] (stereo not shown) [FD&C Yellow No. 5 dye] | 
5 | anionic in nature | Water was red | Cc1ccc(N=Nc2c([O-])c(C(=O)O)cc3ccccc23)c(S(=O)(=O)[O-])c1.[Na+].[Na+] [Lithol Rubine B] | formed a highly insoluble reaction product with the quat
